Laboratory results: US8450333B2, “Molecules for regulating cell death” (The Regents of The University of California, priority 2003, dated 2013)

Experiments:
dynamin-1 = target: T1, dynamin-1 (Homo sapiens, UniProt Q05193); experiment: Assembly-stimulated GTP hydrolysis by dynamin-1; assay type: biochemical
T1 sequence (Q05193 1-864): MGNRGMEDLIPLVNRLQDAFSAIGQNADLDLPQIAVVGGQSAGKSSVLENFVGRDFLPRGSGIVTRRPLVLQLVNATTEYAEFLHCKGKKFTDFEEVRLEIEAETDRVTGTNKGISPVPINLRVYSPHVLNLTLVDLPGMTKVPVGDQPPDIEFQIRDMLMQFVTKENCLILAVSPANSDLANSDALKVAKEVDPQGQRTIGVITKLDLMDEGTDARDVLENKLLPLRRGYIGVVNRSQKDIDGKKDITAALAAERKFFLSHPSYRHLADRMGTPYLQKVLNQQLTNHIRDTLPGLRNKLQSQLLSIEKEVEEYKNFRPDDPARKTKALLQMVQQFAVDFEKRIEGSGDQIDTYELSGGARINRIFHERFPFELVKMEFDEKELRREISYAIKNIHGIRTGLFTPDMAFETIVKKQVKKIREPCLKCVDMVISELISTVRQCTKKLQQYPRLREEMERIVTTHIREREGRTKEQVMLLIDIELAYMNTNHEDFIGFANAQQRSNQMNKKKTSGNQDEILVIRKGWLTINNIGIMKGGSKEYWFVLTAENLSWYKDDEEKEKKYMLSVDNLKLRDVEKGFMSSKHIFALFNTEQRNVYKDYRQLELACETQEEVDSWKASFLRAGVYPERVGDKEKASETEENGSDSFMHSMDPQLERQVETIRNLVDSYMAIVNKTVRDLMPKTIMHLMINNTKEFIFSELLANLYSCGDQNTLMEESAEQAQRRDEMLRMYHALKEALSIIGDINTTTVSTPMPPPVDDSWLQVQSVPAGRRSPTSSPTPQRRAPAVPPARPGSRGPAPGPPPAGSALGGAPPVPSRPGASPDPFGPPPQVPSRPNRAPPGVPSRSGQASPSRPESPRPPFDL
Description: Our observations raise the question of whether mfisi-1 is simply a general inhibitor of GTPase super family members and/or DRPs. It seems unlikely that mfisi-1 is an inhibitor of all GTPase superfamily members, given that it has no effect on GTPase-dependent activities, such as maintenance of the actin cytoskeleton. To more directly address this question, however, we examined the effects of mfisi-1 on the DRP, dynamin-1, which functions during endocytosis in the scission of clathrin coated pits from the plasma membrane. […] We will continue to explore the specificity of mfisi-1 for DRPs by determining its effects on the mammalian Dnm1 ortholog, Drp1. […] Taken together, our data are consistent with mfisi-1 functioning in vivo as a selective inhibitor of the dynamin-related GTPase, Dnm1, to block mitochondrial fission.

mammalian COS cells = experiment: Mitochondrial fragmentation induced by staurosporine (STS) in COS cells; assay type: cell-based; details: COS cells stimulated with STS; mfisi-1 at 50 μM; n=100
Description: As indicated above, we observed that mfisi-1 causes changes in mitochondrial morphology in mammalian cells that are consistent with a block in mitochondrial fission. Thus, we examined the effects of mfisi-1 on mitochondrial fragmentation caused by the intrinsic apoptotic stimulus staurosporine (STS) in mammalian COS cells. […] These observations indicate that mfisi-1 retards apoptosis-stimulated Drp1-dependent mitochondrial fission.

Δdnm1 cells = experiment: Mitochondrial morphology in Δdnm1 yeast cells; assay type: cell-based
Description: Formally, the small molecules we identified could produce their phenotypes by either inhibiting or activating fission or fusion. To distinguish the exact effects of mfisi-1 and other small molecules identified in our screens on mitochondrial dynamics, we have directly measured the rates of fission and fusion events after drug addition in yeast cells by examining the behavior of mitochondria using time-lapse fluorescence microscopy. […] In contrast, in DMSO treated control cells, both fission and fusion events were easily detected in the same time frame.
To determine the target of mfisi-2, we will characterize this small molecule using the assays for fission. We will also determine whether mfisi-2 affects mitochondrial morphology in mammalian cells. If this is the case, then mfisi-2 might inhibit mitochondrial fission by affecting conserved fission-related activities. […] If mfisi-2 produces mitochondrial net-like structures in mammalian cells, we will determine its effects on apoptosis as described previously. Prioritization and characterization of potential mitochondrial fusion inhibitors In our screens for mitochondrial fusion inhibitors, we identified a total of 37 compounds. […] To determine whether fragmentation in drug-treated cells is strictly dependent upon Dnm1-dependent fission, we determined the effects of these small molecules on mitochondrial morphology in Δdnm1 cells. […]

SMILES: COc1cc(-n2c(S)nc3ccccc3c2=O)c(Cl)cc1Cl [mfisi-1, 3-(2,4-Dichloro-5-methoxy-phenyl)-2-mercapto-3H-quinazolin-4-one]
- effect on assembly-stimulated rates of GTP hydrolysis for dynamin-1 (dynamin-1): had no effect
- % collapsed nets (mammalian COS cells): 0%
- % fragmented (mammalian COS cells): 46%
- % loose nets (mammalian COS cells): 8%
- % reticular (mammalian COS cells): 46%
- effect on mitochondrial morphology in Δdnm1 cells (Δdnm1 cells): did not change the net-like morphology
